Measured values from ChEMBL document CHEMBL6127032, “Progress of ATM inhibitors: Opportunities and challenges” (Eur J Med Chem, 2024).
Converted amounts (≈) assume the structure as drawn. Values belong to the molecule of their own block, whether it stands above or below them.

What was measured:
[1] = Oral bioavailability in human; format: ADME, organism-based; settings: in vivo
[2] = target: T1, Serine-protein kinase ATM (Homo sapiens, UniProt Q13315); assay: Inhibition of ATM in human HeLa cells; format: cell-based
[3] = Inhibition of PI3K (unknown origin); set-up: species or system Homo sapiens
[4] = target: Serine/threonine-protein kinase ATR (Homo sapiens, UniProt Q13535); assay: Inhibition of ATR (unknown origin)
[5] = Inhibition of DNA-PK (unknown origin); set-up: species or system Homo sapiens
[6] = target: Serine/threonine-protein kinase mTOR (Homo sapiens, UniProt P42345); assay: Inhibition of mTOR (unknown origin)
[7] = Inhibition of PI4K (unknown origin); set-up: species or system Homo sapiens
U2OS = assay: cells; settings: Homo sapiens
[8] = target: T1, Serine-protein kinase ATM; assay: Inhibition of ATM (unknown origin)
[9] = Solubility of compound in PBS buffer; format: physicochemical

T1 sequence (Q13315 whole entry): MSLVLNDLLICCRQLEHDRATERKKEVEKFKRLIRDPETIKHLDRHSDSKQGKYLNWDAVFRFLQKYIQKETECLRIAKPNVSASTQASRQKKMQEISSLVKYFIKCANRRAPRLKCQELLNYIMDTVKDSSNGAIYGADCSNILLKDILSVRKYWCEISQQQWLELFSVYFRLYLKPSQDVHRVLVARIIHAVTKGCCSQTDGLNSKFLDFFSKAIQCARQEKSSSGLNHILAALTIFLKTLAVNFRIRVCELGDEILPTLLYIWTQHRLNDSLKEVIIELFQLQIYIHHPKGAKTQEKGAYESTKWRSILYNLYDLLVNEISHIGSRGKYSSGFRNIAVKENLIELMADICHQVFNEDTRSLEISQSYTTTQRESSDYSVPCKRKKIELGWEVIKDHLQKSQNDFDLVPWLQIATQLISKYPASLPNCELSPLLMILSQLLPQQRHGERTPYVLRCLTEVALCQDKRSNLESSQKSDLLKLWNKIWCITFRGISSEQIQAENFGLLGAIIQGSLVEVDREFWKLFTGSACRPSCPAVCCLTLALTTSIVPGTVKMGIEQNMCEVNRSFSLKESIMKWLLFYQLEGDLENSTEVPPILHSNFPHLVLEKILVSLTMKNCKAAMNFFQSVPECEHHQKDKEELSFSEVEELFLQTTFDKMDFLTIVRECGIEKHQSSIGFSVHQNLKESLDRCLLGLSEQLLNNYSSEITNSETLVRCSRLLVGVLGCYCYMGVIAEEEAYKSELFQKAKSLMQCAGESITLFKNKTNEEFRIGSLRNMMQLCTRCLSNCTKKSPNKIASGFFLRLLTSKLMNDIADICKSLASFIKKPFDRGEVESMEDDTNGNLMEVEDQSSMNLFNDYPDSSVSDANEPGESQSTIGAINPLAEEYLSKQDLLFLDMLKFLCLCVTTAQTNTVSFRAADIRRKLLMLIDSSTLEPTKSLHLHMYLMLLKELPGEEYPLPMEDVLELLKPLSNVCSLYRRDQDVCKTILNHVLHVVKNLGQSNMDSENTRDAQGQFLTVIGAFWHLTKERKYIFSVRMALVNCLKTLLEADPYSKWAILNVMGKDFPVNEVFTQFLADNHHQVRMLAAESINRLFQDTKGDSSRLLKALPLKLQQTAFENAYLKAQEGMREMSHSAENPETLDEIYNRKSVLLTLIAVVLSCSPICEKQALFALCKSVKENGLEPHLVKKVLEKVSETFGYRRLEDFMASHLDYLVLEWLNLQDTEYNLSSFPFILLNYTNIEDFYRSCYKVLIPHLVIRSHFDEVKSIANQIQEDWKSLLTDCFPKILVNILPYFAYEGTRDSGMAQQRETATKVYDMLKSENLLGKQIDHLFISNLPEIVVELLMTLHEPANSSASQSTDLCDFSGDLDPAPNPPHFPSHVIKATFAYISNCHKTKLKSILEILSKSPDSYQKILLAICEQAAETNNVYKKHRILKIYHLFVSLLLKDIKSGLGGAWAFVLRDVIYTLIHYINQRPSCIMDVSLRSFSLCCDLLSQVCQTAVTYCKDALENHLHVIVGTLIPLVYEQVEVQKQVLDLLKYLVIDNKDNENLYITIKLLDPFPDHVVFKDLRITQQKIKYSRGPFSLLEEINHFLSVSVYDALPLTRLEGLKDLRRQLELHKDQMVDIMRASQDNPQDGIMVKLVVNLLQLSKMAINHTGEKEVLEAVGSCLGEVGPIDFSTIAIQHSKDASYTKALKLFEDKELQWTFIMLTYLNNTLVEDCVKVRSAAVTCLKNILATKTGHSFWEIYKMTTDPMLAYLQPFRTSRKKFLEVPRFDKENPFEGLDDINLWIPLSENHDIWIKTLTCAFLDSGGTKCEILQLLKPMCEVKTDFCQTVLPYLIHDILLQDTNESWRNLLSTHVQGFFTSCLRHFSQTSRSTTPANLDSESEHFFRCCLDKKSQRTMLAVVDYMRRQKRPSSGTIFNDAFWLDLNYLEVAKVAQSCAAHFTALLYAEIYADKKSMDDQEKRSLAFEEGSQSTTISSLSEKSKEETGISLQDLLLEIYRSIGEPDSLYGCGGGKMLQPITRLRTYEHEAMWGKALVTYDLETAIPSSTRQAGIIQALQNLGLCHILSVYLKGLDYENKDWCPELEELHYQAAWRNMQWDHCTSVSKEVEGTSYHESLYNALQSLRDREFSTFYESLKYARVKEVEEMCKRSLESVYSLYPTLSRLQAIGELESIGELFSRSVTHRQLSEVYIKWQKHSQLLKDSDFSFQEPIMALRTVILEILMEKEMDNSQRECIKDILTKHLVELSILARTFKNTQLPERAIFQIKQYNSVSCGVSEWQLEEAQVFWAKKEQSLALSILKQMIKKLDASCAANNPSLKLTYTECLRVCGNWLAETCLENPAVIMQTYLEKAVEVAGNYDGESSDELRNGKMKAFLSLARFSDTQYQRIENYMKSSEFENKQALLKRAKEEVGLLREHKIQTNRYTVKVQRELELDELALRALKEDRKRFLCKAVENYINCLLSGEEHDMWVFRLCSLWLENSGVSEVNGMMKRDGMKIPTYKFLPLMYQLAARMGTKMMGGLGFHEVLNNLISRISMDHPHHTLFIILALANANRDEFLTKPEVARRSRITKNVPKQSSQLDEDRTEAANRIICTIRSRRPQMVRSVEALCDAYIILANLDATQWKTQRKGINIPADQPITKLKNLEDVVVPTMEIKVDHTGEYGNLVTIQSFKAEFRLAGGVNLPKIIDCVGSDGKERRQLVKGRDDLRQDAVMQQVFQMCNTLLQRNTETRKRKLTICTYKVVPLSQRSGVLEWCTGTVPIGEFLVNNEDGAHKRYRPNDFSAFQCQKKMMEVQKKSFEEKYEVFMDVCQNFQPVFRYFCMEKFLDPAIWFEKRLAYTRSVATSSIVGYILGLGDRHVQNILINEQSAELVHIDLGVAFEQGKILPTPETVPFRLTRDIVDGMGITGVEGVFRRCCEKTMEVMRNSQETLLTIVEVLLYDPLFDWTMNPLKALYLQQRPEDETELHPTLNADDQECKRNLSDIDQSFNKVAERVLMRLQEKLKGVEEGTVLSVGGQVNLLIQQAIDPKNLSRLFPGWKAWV

- bioavailability [1]: 37%
SMILES: C[C@@H]1CN(CC(=O)Nc2ccc3c(c2)Cc2cccc(-c4cc(=O)cc(N5CCOCC5)o4)c2S3)C[C@H](C)O1

- IC50 [2]: 0.013 µM
- IC50 [3]: 10 µM
- IC50 [4]: > 100 µM
- IC50 [5]: 9.1 µM
- IC50 [6]: > 10 µM
- IC50 [7]: > 100 µM
SMILES: CN1CCN(CCC(=O)Nc2ccc3c(c2)Sc2cccc(-c4cc(=O)cc(N5CCOCC5)o4)c2S3)CC1

- IC50 (U2OS): 0.23 µM
SMILES: O=c1cc(N2CCOCC2)cc(N2CCCCC[C@@H]2Cc2ccccc2)[nH]1

- IC50 [8]: 0.0078 µM
SMILES: CC(C)n1c(=O)n(C)c2cnc3cc(F)c(-c4ccc(OCCCN5CCCCC5)nc4)cc3c21 [AZD-1390]

- solubility [9]: 93 µg/mL (≈ 207 µM)
- IC50 [5]: 0.6 µM
SMILES: COc1cc2ncc3c(c2cc1-c1cn(C)nc1C)n(-c1c(F)cncc1OC)c(=O)n3C [LARTESERTIB]
